Results: patent US20260124181A1, “AGENT FOR REDUCING BLOOD MYOSTATIN LEVEL” (KOWA COMPANY, LTD., priority 2022, published 2026)

System: blood myostatin
Assay: Effect of compound A on blood myostatin in NAFLD patients, oral administration for 72 weeks versus placebo
Assay type: in vivo, human
Settings: 0.4 mg per day oral (0.2-mg tablet twice a day)
Protocol: An effect on blood myostatin at the time of the oral administration of 0.4 mg per day of the compound A (a 0.2-mg tablet of the compound A was administered twice a day at the time of fasting) to a patient of a nonalcoholic fatty liver disease (NAFLD) for 72 weeks was investigated by comparison to the administration of a placebo. […] It was clear from FIG. 1 that the administration of the compound A reduced the fasting blood myostatin concentration at 12 weeks and 72 weeks from the administration in a stepwise manner as compared to the placebo administration.

## CC[C@@H](Oc1cccc(CN(CCCOc2ccc(OC)cc2)c2nc3ccccc3o2)c1)C(=O)O [Compound A, (R)-2-[3-[[N-(benzoxazol-2-yl)-N-3-(4-methoxyphenoxy)propyl]aminomethyl]phenoxy]butyric acid]
12 weeks after start of administration
  fasting blood myostatin concentration, change from baseline as compared to placebo: reduced
72 weeks after start of administration
  fasting blood myostatin concentration, change from baseline as compared to placebo: reduced
